Reference: patent US20210401957A1, “ROBO1 CAR-NK CELL CARRYING SUICIDE GENE, PREPARATION METHOD AND APPLICATION THEREOF” (Asclepius (Suzhou) Technology Company Group Co., Ltd., priority 2019, published 2021)

Test system: ROBO1-iCaspase9CAR-NK cells
Test: Apoptosis of ROBO1-iCaspase9 CAR-NK cells induced by medicament AP1903
Type: cell-based, human
Settings: within 24 hours
Experimental: Different amounts of medicament AP1903 were respectively added into the ROBO1 CAR-NK cells carrying the suicide gene (ATCG427B-1F7 and 2D5) after screening in Example 6 to test the effect thereof on apoptosis of the ROBO1 CAR-NK cells carrying the suicide gene (denoted with ATCG427B). Meanwhile, the medicament AP1903 was added into the ROBO1 CAR-NK cells as control, and divided into three experimental groups, i.e., cells treated by the medicament AP1903 with different concentrations (0 nM, 10 nM and 50 nM) for 2 hours, 4 hours and 24 hours. The experimental groups respectively treated for 4 hours and 24 hours were continuously cultured with fresh medium, and the cell viability was counted three days later, and the results were shown in FIG. 12. In addition, the 0 nM and 10 nM experimental groups treated for 4 hours were cultured in fresh medium for 24 hours and then photographed, and the results were shown in FIG. 13.

CC[C@H](C(=O)N1CCCC[C@H]1C(=O)O[C@H](CCc1ccc(OC)c(OC)c1)c1cccc(OCC(=O)NCCNC(=O)COc2cccc([C@@H](CCc3ccc(OC)c(OC)c3)OC(=O)[C@@H]3CCCCN3C(=O)[C@@H](CC)c3cc(OC)c(OC)c(OC)c3)c2)c1)c1cc(OC)c(OC)c(OC)c1 [AP1903]
effect of AP1903 on the control cells (printed as ROBO1-iCaspase9CAR-NK cells): has no effect
killing of ROBO1-iCaspase9CAR-NK cells by AP1903: can effectively kill
